≈ marks a conversion by molar mass, not a printed value.
Experiments:
[1] = system: Mycobacterium tuberculosis H37Rv (ATCC 27294); assay: Microplate Alamar Blue Assay (MABA); assay type: cell-based; details: M. tuberculosis H37Rv, BACTEC 12B medium, pH 6.8, concentration effecting 90% reduction in fluorescence relative to controls
Procedure: A series of in vitro tests were carried out to determine the properties of known compounds alongside a rhenium derivative of an in vivo imaging agent of the present invention. These tests were the Microplate Alamar Blue Assay (MABA) (Franzblau S et al., J Clin Microbiol 1998, 36, 362-366), the Low Oxygen Recovery Assay (LORA) (Cho et al., Antimicro Agents Chemother 2007, 51, 1380-1385), and the VERO cell cytotoxicity assay to determine IC 50 (Cory A H et al., Cancer Commun 1991, 3, 207-12).
The initial screen was conducted against Mycobacterium tuberculosis H37Rv (ATCC 27294) in BACTEC 12B medium using the Microplate Alamar Blue Assay (MABA). Compounds were tested in ten 2-fold dilutions, typically from 100 μg/mL to 0.19 μg/mL at pH 6.8. The MIC90 is defined as the concentration effecting a reduction in fluorescence of 90% relative to controls. This value was determined from the dose-response curve using a curve-fitting program.

[2] = system: VERO cell; assay: VERO cell cytotoxicity assay; assay type: cell-based; details: Chlorocebus sabaeus, 72 hours exposure, Cell Titer Glo viability

Structure (SMILES)	MIC [1]	IC50 [2]
COc1ccc(CSCCNCCN(CCCN)CCSCc2ccc(OC)cc2)cc1 [Chelate alone]	1.49 mg/L (≈ 3.12 µM)	> 50 mg/L
COc1ccc(CSCCNCCN(CCCNC(=O)c2cnccn2)CCSCc2ccc(OC)cc2)cc1 [PZA + Chelate]	10.4 mg/L	36.8 mg/L
NC(=O)c1cnccn1 [Standard drug, Pyrazinamide]	> 100 mg/L	
